# Results reported in PubChem BioAssay AID330 (DTP/NCI, 2004).
# Where “and” joins values, the source holds several entries; their conditions need not be identical. Identical values can stand only once. Inconclusive results and toxic doses are left out.
# Test system: P388 leukemia ip, CD2F1 mice, survival T/C
# Experiment: NCI In Vivo Anticancer Drug Screen. Data for tumor model P388 Leukemia (intraperitoneal) in CD2F1 (CDF1) mice
# Settings: endpoint: median survival time, higher = longer survival
# Method in brief: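 Mice carrying the transplanted tumor received test compound or vehicle. Survival was recorded in each group, and the value is the treated-group measurement divided by that of the vehicle-treated control group.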
# [1] = dose: 60.0 mg/kg/injection, schedule: Q01DX005 (ip), vehicle: Klucel (hydroxypropylcellulose) (HPC)
# [2] = dose: 120.0 mg/kg/injection, schedule: Q01DX005 (ip), vehicle: Klucel (hydroxypropylcellulose) (HPC)
# [3] = dose: 60.0 mg/kg/injection, schedule: Q01DX005 (ip), vehicle: saline with Tween-80
# [4] = dose: 120.0 mg/kg/injection, schedule: Q01DX005 (ip), vehicle: saline with Tween-80
# [5] = dose: 240.0 mg/kg/injection, schedule: Q01DX005 (ip), vehicle: saline with Tween-80
# [6] = dose: 60.0 mg/kg/injection, schedule: Q01DX005 (ip), vehicle: saline
# [7] = dose: 50.0 mg/kg/injection, schedule: Q01DX009 (ip), vehicle: saline with Tween-80
compound,measurement,setting,value
COC(=O)C(C)(OC)OC,T/C,"dose: 100.0 mg/kg/injection, schedule: Q04DX003 (ip), vehicle: saline",100 % of control
same,T/C,"dose: 200.0 mg/kg/injection, schedule: Q04DX003 (ip), vehicle: saline",109 % of control
same,T/C,"dose: 400.0 mg/kg/injection, schedule: Q04DX003 (ip), vehicle: saline",100 % of control
CC(C)[C@H]1OC(=O)C=C2[C@@]13O[C@@H]3[C@H]1OC(=O)[C@]3(C)C1[C@]2(C)CC[C@@H]3O (stereo partly specified),T/C,"dose: 1.0 mg/kg/injection, schedule: Q01DX009 (ip), vehicle: saline with Tween-80",101 % of control
same,T/C,"dose: 40.0 mg/kg/injection, schedule: Q01DX009 (ip), vehicle: saline with Tween-80",105 % of control
CCCCNC(C)(C)C(SS)c1ccc(C(F)(F)F)cc1 (stereo unspecified),T/C,"dose: 50.0 mg/kg/injection, schedule: Q04DX003 (ip), vehicle: other",100 % of control
same,T/C,"dose: 100.0 mg/kg/injection, schedule: Q04DX003 (ip), vehicle: other",104 % of control
O=C(O)c1cc2c3ccccc3sc2c2ccccc12,T/C,"dose: 30.0 mg/kg/injection, schedule: Q01DX005 (ip), vehicle: Klucel (hydroxypropylcellulose) (HPC)",93 % of control
same,T/C,[1],93 % of control
same,T/C,[2],90 % of control
same,T/C,"dose: 240.0 mg/kg/injection, schedule: Q01DX005 (ip), vehicle: Klucel (hydroxypropylcellulose) (HPC)",90 % of control
O=[N+]([O-])c1cccnc1-n1nnc2c([N+](=O)[O-])cccc21,T/C,[3],99 % of control
same,T/C,[4],100 % of control
same,T/C,[5],102 % of control
CCN(c1ccccc1)c1cc(=O)nc2ccccn12,T/C,[6],107 % of control
same,T/C,"dose: 120.0 mg/kg/injection, schedule: Q01DX005 (ip), vehicle: saline",105 % of control
same,T/C,"dose: 240.0 mg/kg/injection, schedule: Q01DX005 (ip), vehicle: saline",104 % of control
CN=C(NC)c1ccc(NC(=O)c2ccc(C(=O)Nc3ccc(C(=NC)NC)cc3)c([N+](=O)[O-])c2)cc1,T/C,"dose: 1.56 mg/kg/injection, schedule: Q01DX005 (ip), vehicle: Klucel (hydroxypropylcellulose) (HPC)",106 % of control
same,T/C,"dose: 3.12 mg/kg/injection, schedule: Q01DX005 (ip), vehicle: Klucel (hydroxypropylcellulose) (HPC)",118 % of control
Cc1cc(C)n(C(=N)/C(C#N)=N/N(C)c2ccccc2)n1,T/C,"dose: 25.0 mg/kg/injection, schedule: Q04DX002 (ip), vehicle: saline with Tween-80",100 % of control
same,T/C,"dose: 50.0 mg/kg/injection, schedule: Q04DX002 (ip), vehicle: saline with Tween-80",93 % of control
same,T/C,"dose: 100.0 mg/kg/injection, schedule: Q04DX002 (ip), vehicle: saline with Tween-80",90 % of control
CN(C)C1CC2CCCCC2CC1OC(=O)c1ccc([N+](=O)[O-])cc1 (stereo unspecified),T/C,"dose: 100.0 mg/kg/injection, schedule: Q04DX003 (ip), vehicle: saline with Tween-80",101 % of control
same,T/C,"dose: 200.0 mg/kg/injection, schedule: Q04DX003 (ip), vehicle: saline with Tween-80",110 % of control
same,T/C,"dose: 400.0 mg/kg/injection, schedule: Q04DX003 (ip), vehicle: saline with Tween-80",101 % of control
O=C(Oc1c(Cc2ccccc2)c(=O)[nH]c2ccccc12)c1ccccc1,T/C,[1],90 % of control
same,T/C,[2],89 % of control
O=C(O)C1SCSC1C(=O)O (stereo unspecified),T/C,"dose: 25.0 mg/kg/injection, schedule: Q01DX009 (ip), vehicle: other",94 % of control
same,T/C,"dose: 50.0 mg/kg/injection, schedule: Q01DX009 (ip), vehicle: other",100 % of control
same,T/C,"dose: 100.0 mg/kg/injection, schedule: Q01DX009 (ip), vehicle: other",90 % of control
same,T/C,"dose: 200.0 mg/kg/injection, schedule: Q01DX009 (ip), vehicle: other",98 % of control
Cc1cccc(-[n+]2noc(N)n2)c1,T/C,"dose: 3.13 mg/kg/injection, schedule: Q01DX009 (ip), vehicle: water",100 % of control
same,T/C,"dose: 6.25 mg/kg/injection, schedule: Q01DX009 (ip), vehicle: water",100 % of control
same,T/C,"dose: 12.5 mg/kg/injection, schedule: Q01DX009 (ip), vehicle: water",114 % of control
same,T/C,"dose: 25.0 mg/kg/injection, schedule: Q01DX009 (ip), vehicle: water",152 % of control
same,T/C,"dose: 50.0 mg/kg/injection, schedule: Q01DX009 (ip), vehicle: water",167 % of control
C1CCc2c(-c3n[nH]c4c3CCCC4)n[nH]c2C1,T/C,[3],103 % of control
same,T/C,[4],101 % of control
same,T/C,[5],100 % of control
N#C[C@H]1O[C@H]1c1ccc[n+]([O-])c1,T/C,"dose: 12.5 mg/kg/injection, schedule: Q01DX005 (ip), vehicle: saline",107 % of control
same,T/C,"dose: 25.0 mg/kg/injection, schedule: Q01DX005 (ip), vehicle: saline",102 % of control
same,T/C,"dose: 50.0 mg/kg/injection, schedule: Q01DX005 (ip), vehicle: saline",103 % of control and 115 % of control
CC1(c2ccccc2)OC1C(=O)N(c1ccccc1)c1ccccc1 (stereo unspecified),T/C,"dose: 100.0 mg/kg/injection, schedule: Q04DX003 (ip), vehicle: Klucel (hydroxypropylcellulose) (HPC)",96 % of control
same,T/C,"dose: 200.0 mg/kg/injection, schedule: Q04DX003 (ip), vehicle: Klucel (hydroxypropylcellulose) (HPC)",94 % of control
same,T/C,"dose: 400.0 mg/kg/injection, schedule: Q04DX003 (ip), vehicle: Klucel (hydroxypropylcellulose) (HPC)",88 % of control
CC(=O)OC(C)(C)/C=C/C(=O)[C@](C)(O)[C@H]1[C@H](O)C[C@@]2(C)[C@@H]3CC=C4[C@@H](C[C@H](O)[C@H](O)C4(C)C)[C@]3(C)C(=O)C[C@]12C,T/C,"dose: 5.0 mg/kg/injection, schedule: Q01DX009 (ip), vehicle: saline with Tween-80",107 % of control
same,T/C,"dose: 10.0 mg/kg/injection, schedule: Q01DX009 (ip), vehicle: saline with Tween-80",107 % of control
same,T/C,"dose: 20.0 mg/kg/injection, schedule: Q01DX009 (ip), vehicle: saline with Tween-80",112 % of control
CN(C)c1ccc(/C=C/c2cc[n+](C)c(/C=C/c3ccc(N(C)C)cc3)c2)cc1,T/C,"dose: 0.78 mg/kg/injection, schedule: Q01DX005 (ip), vehicle: saline",115 % of control
same,T/C,"dose: 1.56 mg/kg/injection, schedule: Q01DX005 (ip), vehicle: saline",119 % of control
CN(C)CCCNCCCCNCCCN(C)C,T/C,[7],105 % of control
same,T/C,"dose: 100.0 mg/kg/injection, schedule: Q01DX009 (ip), vehicle: saline with Tween-80",110 % of control
same,T/C,"dose: 200.0 mg/kg/injection, schedule: Q01DX009 (ip), vehicle: saline with Tween-80",110 % of control
CC1(C)C(=O)CCC2(C)C1CC(=O)C1(C)C2CCC2(C)C(c3ccoc3)OC(=O)C3OC321 (stereo unspecified),T/C,"dose: 0.5 mg/kg/injection, schedule: Q01DX009 (ip), vehicle: Klucel (hydroxypropylcellulose) (HPC)",100 % of control and 102 % of control
same,T/C,"dose: 1.0 mg/kg/injection, schedule: Q01DX009 (ip), vehicle: Klucel (hydroxypropylcellulose) (HPC)",102 % of control
same,T/C,"dose: 2.0 mg/kg/injection, schedule: Q01DX009 (ip), vehicle: Klucel (hydroxypropylcellulose) (HPC)",92 % of control and 96 % of control
same,T/C,"dose: 4.0 mg/kg/injection, schedule: Q01DX009 (ip), vehicle: Klucel (hydroxypropylcellulose) (HPC)",98 % of control and 93 % of control
same,T/C,"dose: 8.0 mg/kg/injection, schedule: Q01DX009 (ip), vehicle: Klucel (hydroxypropylcellulose) (HPC)",98 % of control and 86 % of control
Nc1nc(Cl)cc(Cl)n1,T/C,"dose: 12.5 mg/kg/injection, schedule: Q01DX009 (ip), vehicle: Klucel (hydroxypropylcellulose) (HPC)",94 % of control
same,T/C,"dose: 25.0 mg/kg/injection, schedule: Q01DX009 (ip), vehicle: Klucel (hydroxypropylcellulose) (HPC)",107 % of control
same,T/C,"dose: 50.0 mg/kg/injection, schedule: Q01DX009 (ip), vehicle: Klucel (hydroxypropylcellulose) (HPC)",108 % of control
same,T/C,"dose: 100.0 mg/kg/injection, schedule: Q01DX009 (ip), vehicle: Klucel (hydroxypropylcellulose) (HPC)",99 % of control
Cc1ccoc1OP(=O)(N(C)C)N(C)C,T/C,"dose: 15.0 mg/kg/injection, schedule: Q01DX005 (ip), vehicle: saline",102 % of control
same,T/C,"dose: 30.0 mg/kg/injection, schedule: Q01DX005 (ip), vehicle: saline",100 % of control
same,T/C,[6],108 % of control
Clc1ccc(N=c2ccn3ccccc3c2)cc1Cl,T/C,"dose: 12.5 mg/kg/injection, schedule: Q01DX009 (ip), vehicle: saline with Tween-80",94 % of control
same,T/C,"dose: 25.0 mg/kg/injection, schedule: Q01DX009 (ip), vehicle: saline with Tween-80",94 % of control
same,T/C,[7],97 % of control
Clc1ccc(C2N3Cc4ccccc4CN2c2ccccc23)cc1,T/C,"dose: 100.0 mg/kg/injection, schedule: Q01DX001 (ip), vehicle: Klucel (hydroxypropylcellulose) (HPC)",100 % of control
same,T/C,"dose: 200.0 mg/kg/injection, schedule: Q01DX001 (ip), vehicle: Klucel (hydroxypropylcellulose) (HPC)",98 % of control
same,T/C,"dose: 400.0 mg/kg/injection, schedule: Q01DX001 (ip), vehicle: Klucel (hydroxypropylcellulose) (HPC)",96 % of control
